According to patent publication US20230356105A1, “TETRAAZADODECANE BASED CHELATING AGENTS FOR SEPARATION OF RARE EARTH ELEMENTS AND METHOD THEREFOR” (Ustav Organicke Chemie a Biochemie AV CR V.V.I., priority 2020, published 2023):

Test: Separation of binary mixture of rare-earth metals by precipitation using L6 (Example 9)
Assay type: physicochemical
Details: supernatant; for [mM] M1: with Nd

## O=C(O)CN1CCN(CC(=O)O)CCN(Cc2ccc(-c3ccccc3)cc2)CCN(CC(=O)O)CC1 [L6, 2,2′,2″-(10-([1,1′-biphenyl]-4-ylmethyl)-1,4,7,10-tetraazacyclododecane-1,4,7-triyl)triacetic acid]
M1=Ce
  [mM] M1: 0.596 mM
  [mM] Nd: 0.556 mM
M1=Dy
  [mM] M1: 0.459 mM
  [mM] Nd: 0.135 mM
M1=Er
  [mM] M1: 2.027 mM
  [mM] Nd: 0.702 mM
M1=Eu
  [mM] M1: 0.711 mM
  [mM] Nd: 0.566 mM
M1=Gd
  [mM] M1: 0.195 mM
  [mM] Nd: 0.166 mM
M1=Ho
  [mM] M1: 1.943 mM
  [mM] Nd: 0.618 mM
M1=La
  [mM] M1: 0.620 mM
  [mM] Nd: 0.606 mM
M1=Lu
  [mM] M1: 3.231 mM
  [mM] Nd: 0.841 mM
M1=Nd
  [mM] M1: 0.496 mM
  [mM] Nd: 0.496 mM
M1=Pr
  [mM] M1: 0.524 mM
  [mM] Nd: 0.559 mM
M1=Sc
  [mM] M1: 2.414 mM
  [mM] Nd: 0.594 mM
M1=Sm
  [mM] M1: 0.541 mM
  [mM] Nd: 0.512 mM
M1=Tb
  [mM] M1: 0.428 mM
  [mM] Nd: 0.178 mM
M1=Tm
  [mM] M1: 2.914 mM
  [mM] Nd: 0.748 mM
M1=Y
  [mM] M1: 1.592 mM
  [mM] Nd: 1.463 mM
M1=Yb
  [mM] M1: 2.243 mM
  [mM] Nd: 0.495 mM
